≈ marks a conversion by molar mass, not a printed value. Like-named read-outs stand apart in the source and are kept apart here.
Assays:
CYP3A4 = CYP3A4 (Homo sapiens (Human), UniProt P08684); experiment: Cyp enzyme inhibition assay in human liver microsomes, CYP3A4; type: in vitro ADME; conditions: CYP3A4, substrate testosterone
Method: (§1) The ability of the compound I-1 to inhibit human metabolizing enzymes CYP3A4, CYP2C9, […], CYP2C19 and CYP1A2, was assessed using those enzymes found collectively in human liver microsomes. The test compound I-1 was prepared as a solution in DMSO or acetonitrile and plated in duplicate rows of a 96-well plate (Nunc) for a final assay concentration of 40 μM in 0.2% DMSO (or 2% acetonitrile) in the first column and serially diluted two-fold going down the row. A known selective inhibitor of a given CYP enzyme listed in Table 8 was selected as the appropriate positive control. For each CYP enzyme inhibition assay, an appropriate enzyme-substrate mixture was prepared to afford a final assay concentration of 75 mM KPO4/pH 7.4, 6.5 mM MgCl2, 0.25 mg/mL pooled male and female human liver microsome (CellzDirect lot HMMC-PL020) with the amounts of the appropriate substrate for each CYP enzyme assay given in Table 8. The enzyme-substrate mixture was added to columns 1 through 10 and column 11 served as a negative control with enzyme solution lacking substrate. A solution of NADPH (Calbiochem) was then added to all rows except for one where NADPH would be added after the incubation period, in order to detect NADPH-independent non-CYP-mediated metabolism. The plate was briefly vortexed and left to shake in a 37° C. water bath for 20 minutes. […]

[1] = Pharmacokinetic study in rats, intravenous and oral; type: in vivo; conditions: rat
Method: Rats were dosed either intravenously at 1 mg/kg dose or orally at 10 mg/kg dose with Compound I-1. Blood samples were collected over a 24 hour time-course. The plasma was analyzed for Compound I-1 and the pharmacokinetic parameters were determined.
Pre-catheterized (jugular vein), male Sprague-Dawley rats (230-300 g) obtained from Charles River, Hollister, Calif., were acclimated at the vivarium of Rabbit and Rodent Diagnostic Associates (San Diego, Calif.) for at least three days following delivery and prior to entering a study. Rats were fasted overnight before intravenous or oral dosing. For intravenous dosing, Compound I-1 was dissolved in a 3:1 PEG400:H2O (Water For Injection) solution and administered at a dose of 1 mg/kg. For oral dosing, Compound I-1 was dissolved in a 22% hydroxypropyl-β-cyclodextrin (HPBCD) solution and administered at a dose of 10 mg/kg. Blood was collected at 5 (IV only), 15, 30 min, 1, 2, 4, 6, and 24 hr postdose using K3EDTA as anticoagulant and plasma was harvested for the analysis of Compound I-1.
Plasma samples, calibration standards and quality control samples (20 μL) were extracted with six volumes of acetonitrile containing an internal standard (25 ng/mL) and analyzed using LC-MS/MS analysis (API 3200). Sample separation was achieved on a Zorbax SB C8 column (5 μm, 4.6×50 mm) at a flow rate of 1.6 mL/min. The gradient program was from 5-95% acetonitrile in 0.05% formic acid over one minute. The mass transition from m/z 577.18 to 421.10 was monitored for Compound I-1. The internal standard mass transitions monitored were 483.0 to 317.2.
Pharmacokinetic parameters of Compound I-1 were calculated based on the plasma concentration-time profiles of each animal using the noncompartmental models in WinNonlin v5.2 (Pharsight, Mountain View, Calif.).

CYP2C9 = CYP2C9 (Homo sapiens (Human), UniProt P11712); experiment: Cyp enzyme inhibition assay in human liver microsomes, CYP2C9; type: in vitro ADME; conditions: CYP2C9, substrate Diclofenac
Method: as §1

[2] = Aqueous and surfactant solubility; type: physicochemical; conditions: kinetic from dmso stock, room temperature overnight
Method: After equilibration at room temperature overnight the solutions were filtered and solute concentration determined by fast gradient HPLC without further dilution of the samples. […] These analytical standards were prepared from a 500 μM intermediate stock solution made by diluting 10 μl of the 10 mM sample stocks into 190 μl of 50:50 (v/v) acetonitrile/water. Aliquots of this solution were transferred in duplicate into a 96 well plate in the amounts of 0.4, 2, 4, 20, 40, and 100 μl with the volumes made up to 200 total μl with acetonitrile/water and the plate was then heat sealed with a foil sheet. Prior to sample filtration, filters were primed with 600 μl of sample to resolve potential adsorption problems. Both sample replicates were collected through the primed filter. Duplicate determinations were made in all cases.

plasma protein = experiment: Plasma protein binding assay (equilibrium dialysis); type: in vitro ADME; conditions: 1 μM, equilibrium dialysis 16-20 hours at 37° C.
Method: Reagents: 1× Isotonic PBS (Mediatech, Inc., Herndon, Va.); 96 Well Equilibrium Dialyzer (Harvard Apparatus, Holliston, Mass.) and Animal plasma from species of interest.
1 μM solutions of test compound were prepared in both isotonic PBS and 10% animal plasma in isotonic PBS.
200 μl of each test solution was added to opposite sides of the equilibrium dialysis membrane.
Samples were incubated for 16-20 hours at 37° C.
After incubation, 100 μl sample was removed from the PBS side and diluted with 100 μl of 20% animal plasma in PBS.
100 μl sample was removed from the 10% animal plasma side and diluted with 100 μl of 10% animal plasma.
A calibration curve was prepared in 10% animal plasma to extrapolate unknown concentrations.
Samples were analyzed by LC/MS/MS.
50 μl of samples, calibration standards and quality control standards were extracted with 100 μl of acetonitrile containing 25 ng/ml of internal standard.
Calculations Calculate fraction unbound in 10% plasma Fu(10%)=1−(PC−PF)/PC) Convert 10% plasma value to 100% Fu(100%)=Fu10%/(10−9*Fu10%).

FLT3 = FLT3 (Homo sapiens (Human), UniProt P36888); experiment: biochemical; type: binding
Method: (§2) Competition binding assays used herein were developed, validated and performed as described in Fabian et al., Nature Biotechnology 2005, 23, 329-336. Kinases were produced as fusions to T7 phage (See, Fabian et al. or WO04/015142) or alternatively, the kinases were expressed in HEK-293 cells and subsequently tagged with DNA for PCR detection (See, WO08/005,310). […] The liganded beads were blocked with excess biotin and washed with blocking buffer (SeaBlock (Pierce), 1% BSA, 0.05% Tween 20, 1 mM DTT) to remove unbound ligand and to reduce non-specific binding. […] Test compounds were prepared as 100× stocks in DMSO and rapidly diluted into the aqueous environment. DMSO was added to control assays lacking a test compound. […] The kinase concentration in the eluates was measured by quantitative PCR. Each kinase was tested individually against each compound. Kds were determined using eleven serial threefold dilutions.

FLT3 (N841I) = FLT3 (N841I) (Homo sapiens (Human), UniProt P36888, N841I); experiment: biochemical; type: binding
Method: The liganded beads were blocked with excess biotin and washed with blocking buffer (SeaBlock (Pierce), 1% BSA, 0.05% Tween 20, 1 mM DTT) to remove unbound ligand and to reduce non-specific binding. […] Test compounds were prepared as 100× stocks in DMSO and rapidly diluted into the aqueous environment. DMSO was added to control assays lacking a test compound. […] The kinase concentration in the eluates was measured by quantitative PCR. Each kinase was tested individually against each compound. Kds were determined using eleven serial threefold dilutions.

FLT3 (D835H) = FLT3 (D835H) (Homo sapiens (Human), UniProt P36888, D835H); experiment: biochemical; type: binding
Method: as §2

CYP2D4 = CYP2D4 (Homo sapiens, UniProt P10635); experiment: Cyp enzyme inhibition assay in human liver microsomes, CYP2D4; type: in vitro ADME; conditions: both sexes, pooled human liver microsomes, pH 7.4, probe dextromethorphan, CYP2D4, substrate dextromethorphan
Method: as §1

MV4;11 cells = experiment: MV4;11 cellular proliferation assay (Cell Titer Blue); type: cell-based; conditions: Homo sapiens, MV4-11, 72 h, read-out: EC50 (50% inhibition of cellular proliferation)
Method: Cells were cultured overnight in low serum media with 0.5% FBS. The following day, cells were seeded on to a 96-well plate at 40,000 cells per well at a volume of 100 μL per well.
CTB reagent was thawed in a 37° C. water bath. 40 μL of CTB reagent was added to the plate containing the cells, and the cells were incubated with the reagent at 37° C. in 5% CO2 for 3 hours. The absorbance was measured at 560 nm (excitation)/590 nm (emission) using Spectramax Plus 384 Absorbance Microplate Reader by Molecular Devices.

[3] = male, Sprague-Dawley, plasma, intravenous, 1 mg/kg
[4] = male, Sprague-Dawley, plasma, oral, 10 mg/kg

CYP2C9, sequence (P11712 whole entry): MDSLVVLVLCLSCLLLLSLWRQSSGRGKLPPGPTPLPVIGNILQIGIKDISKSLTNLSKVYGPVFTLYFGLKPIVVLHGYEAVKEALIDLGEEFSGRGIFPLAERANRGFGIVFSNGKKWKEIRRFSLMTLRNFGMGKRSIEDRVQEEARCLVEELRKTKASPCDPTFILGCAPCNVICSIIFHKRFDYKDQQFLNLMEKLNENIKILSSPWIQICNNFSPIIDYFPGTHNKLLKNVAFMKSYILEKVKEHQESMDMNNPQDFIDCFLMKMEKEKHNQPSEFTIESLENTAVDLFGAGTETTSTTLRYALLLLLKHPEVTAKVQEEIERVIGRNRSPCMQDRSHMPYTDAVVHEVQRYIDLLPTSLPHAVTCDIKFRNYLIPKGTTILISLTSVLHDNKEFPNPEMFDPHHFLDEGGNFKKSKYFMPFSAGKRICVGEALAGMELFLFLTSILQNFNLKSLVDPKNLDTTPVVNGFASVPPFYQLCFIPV
CYP2D4, sequence (P10635 whole entry, looked up): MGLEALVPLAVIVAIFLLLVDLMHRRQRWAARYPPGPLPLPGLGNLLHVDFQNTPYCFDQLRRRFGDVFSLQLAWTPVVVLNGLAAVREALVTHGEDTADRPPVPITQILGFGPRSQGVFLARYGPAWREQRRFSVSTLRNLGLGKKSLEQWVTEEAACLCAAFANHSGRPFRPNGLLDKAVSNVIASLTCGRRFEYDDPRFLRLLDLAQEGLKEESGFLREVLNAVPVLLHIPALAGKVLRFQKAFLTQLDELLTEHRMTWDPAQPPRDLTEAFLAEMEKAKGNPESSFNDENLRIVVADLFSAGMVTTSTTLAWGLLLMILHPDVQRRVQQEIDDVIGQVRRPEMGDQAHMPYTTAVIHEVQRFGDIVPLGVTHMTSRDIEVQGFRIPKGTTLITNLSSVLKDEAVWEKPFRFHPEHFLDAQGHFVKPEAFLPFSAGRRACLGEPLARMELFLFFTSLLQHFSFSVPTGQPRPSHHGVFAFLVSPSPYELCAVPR
CYP3A4, sequence (P08684 whole entry): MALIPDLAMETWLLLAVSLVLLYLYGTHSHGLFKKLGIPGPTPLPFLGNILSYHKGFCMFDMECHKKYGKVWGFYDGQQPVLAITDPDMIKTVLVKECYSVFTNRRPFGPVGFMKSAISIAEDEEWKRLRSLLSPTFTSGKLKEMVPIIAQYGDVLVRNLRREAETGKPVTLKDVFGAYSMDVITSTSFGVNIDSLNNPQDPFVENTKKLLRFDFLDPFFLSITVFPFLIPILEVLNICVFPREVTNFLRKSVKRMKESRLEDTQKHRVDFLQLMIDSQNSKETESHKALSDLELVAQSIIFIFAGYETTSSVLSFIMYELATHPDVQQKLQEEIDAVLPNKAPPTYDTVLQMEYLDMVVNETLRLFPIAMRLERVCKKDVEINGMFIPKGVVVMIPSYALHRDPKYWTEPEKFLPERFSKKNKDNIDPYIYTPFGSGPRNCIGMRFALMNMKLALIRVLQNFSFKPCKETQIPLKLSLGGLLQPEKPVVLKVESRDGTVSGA

CC(C)(CO)c1cc(NC(=O)Nc2ccc(-c3cn4c(n3)sc3cc(OCCN5CCOCC5)ccc34)cc2)no1 [Compound I-1, 1-[5-(2-hydroxy-1,1-dimethyl-ethyl)-isoxazol-3-yl]-3-{4-[7-(2-morpholin-4-yl-ethoxy)-benzo[d]imidazo[2,1-b]thiazol-2-yl]-phenyl}-urea]
IC50 (CYP3A4): > 40 µM
AUC(0-inf) [1, 3]: 3.29 µM·h
Vd [1, 3]: 1.34 L/kg
clearance [1, 3]: 8.83 mL/min/kg
half-life [1, 3]: 204 min
AUC(0-inf) [1, 4]: 2.27 µM·h
Cmax [1, 4]: 360 nM
Tmax [1, 4]: 1.2 h
half-life [1, 4]: 222 min
bioavailability ([1]; male, Sprague-Dawley, plasma, oral, 10 mg/kg, calculated with the dose normalized AUC0-inf IV data, read-out: F (absolute bioavailability)): 6.9%
T1/2 ([1]; intravenous, 1 mg/kg): 3.4 h
IC50 (CYP2C9): > 40 µM
solubility ([2]; HBSS buffer with 0.05% Polysorbate 80, pH 7.4, aqueous with cosolvent or surfactant or cyclodextrin, HBSS containing 0.05% Polysorbate 80, 2.5% DMSO, read-out: Average Aqueous Solubility, 0.05% Polysorbate 80): 2 µM (≈ 1.15 µg/mL)
solubility ([2]; Hank's balanced salt solution (HBSS) buffer, aqueous buffer, HBSS pH 7.4, 2.5% DMSO, read-out: Average Aqueous Solubility, pH 7.4): < 1 µM
Percentage of unbound compound in 10% plasma (plasma protein): 42.5%
Kd (FLT3): 0.68 nM
Kd (FLT3 (N841I)): 0.77 nM
Kd (FLT3 (D835H)): 1.9 nM
IC50 at 20 min (CYP2D4): > 40 µM
EC50 (MV4;11 cells): 0.3 nM
